We go through 14 molecules from US20210038607A1, “OXADIAZOLYLTHIOPHENE DERIVATIVES USEFUL AS HISTONE DEACETYLASE INHIBITORS” (Karus Therapeutics Limited, priority 2018, published 2021).

The test system of test [1] is acetylated α-tubulin in A549 lung adenocarcinoma cells. The experiment in a line: Acetylated α-tubulin in-cell western (ICW) assay. The class given is cell-based. As to conditions: Homo sapiens, 16 h exposure, relative to 40 μM scriptaid positive control, read-out: EC50 Ac-α-tubulin, A549 cells. The protocol:
(§1) Acetylated α-Tubulin and Histone H3 in-Cell Western (ICW) Assays
(§2) A549 cells were maintained in DMEM (Life Technologies)+10% FBS+2 mM glutamine & penicillin (10 μg/mL) and streptomycin ([…]. 10,000 A549 cells per well were plated into 96 well tissue culture plates (Corning) and incubated at 37° C. overnight in a humidified atmosphere containing 5% CO2 prior to addition of compounds. Compounds (dissolved in 100% DMSO) were diluted into cell culture media at 2× final assay concentration. 2× compound or DMSO (negative control) were added to cells (final DMSO concentration 0.4%). Untreated control wells received media. For acetylated α-tubulin assays, 40 μM scriptaid was used as a positive control. For acetylated histone H3 assays, 40 μM Trichostatin A (TSA) was used as a positive control. Cells were exposed to compound at 37° C. in a humidified atmosphere containing 5% CO2 for 16 h.
(§3) Measurement of the impact of compounds on levels of acetylated α-tubulin and histone H3 was performed using specific antibodies and near-infrared immunofluorescent dyes. Briefly, media was removed from wells of assay plates. Cells were washed once with PBS and fixed in 3.7% formaldehyde PBS solution at room temperature for 20 min. Cells were then permeabilised by washing 5 times in 0.1% triton-X-100 PBS at room temperature with gentle agitation for 5 min per wash. Non-specific antibody staining was blocked by the addition of Odyssey blocking buffer (Li-Cor) for 1.5 h at room temperature with gentle agitation. Cells were then incubated with primary antibody (mouse monoclonal anti-acetylated α-tubulin (clone 6-11B-1), Sigma or rabbit polyclonal anti-acetylated histone H3, Millipore) diluted in Odyssey blocking buffer at 4° C. with gentle shaking overnight (no antibody control and secondary antibody only wells were incubated with Odyssey blocking buffer only). Cells were washed five times with 0.1% tween PBS and labelled with secondary antibody (IR dye 800CW-conjugated goat anti mouse IgG or -goat anti rabbit IgG, Li-Cor) and cell stains Sapphire700 (Li-Cor) and Draq5 (Biostatus) diluted in Odyssey blocking buffer at room temperature in the dark with gentle shaking for 1 h (no antibody control wells were incubated with Odyssey blocking buffer only and secondary antibody only with diluted secondary antibody but no cell stains). Cells were washed with 0.1% Tween PBS five times and scanned using a Li-Cor Odyssey SA plate reader in 700 and 800 nm channels. Acetylated α-tubulin or histone H3 signal was normalised to cell number using the cell stain signal. Percentage increase in acetylated α-tubulin or histone H3 after compound treatment over the mean of DMSO treated controls, relative to scriptaid and TSA positive controls, respectively was calculated. EC50 values were calculated using GraphPad Prism software and nonlinear regression with 0% bottom and 100% top constraints.

The test system of test [2] is acetylated histone H3 in A549 lung adenocarcinoma cells. Kind of test: Acetylated histone H3 in-cell western (ICW) assay. The class given is cell-based. Particulars: Homo sapiens, 16 h exposure, relative to 40 μM Trichostatin A positive control, read-out: EC50 Ac-histone H3, A549 cells. The protocol:
as §1, §2, §3

The target in the next test is T1, Human HDAC2 (Homo sapiens, UniProt Q92769).
T1 construct: full length with C-terminal GST-tag; GST (C); host or cells: baculovirus expression system
T1 sequence (Q92769 whole entry): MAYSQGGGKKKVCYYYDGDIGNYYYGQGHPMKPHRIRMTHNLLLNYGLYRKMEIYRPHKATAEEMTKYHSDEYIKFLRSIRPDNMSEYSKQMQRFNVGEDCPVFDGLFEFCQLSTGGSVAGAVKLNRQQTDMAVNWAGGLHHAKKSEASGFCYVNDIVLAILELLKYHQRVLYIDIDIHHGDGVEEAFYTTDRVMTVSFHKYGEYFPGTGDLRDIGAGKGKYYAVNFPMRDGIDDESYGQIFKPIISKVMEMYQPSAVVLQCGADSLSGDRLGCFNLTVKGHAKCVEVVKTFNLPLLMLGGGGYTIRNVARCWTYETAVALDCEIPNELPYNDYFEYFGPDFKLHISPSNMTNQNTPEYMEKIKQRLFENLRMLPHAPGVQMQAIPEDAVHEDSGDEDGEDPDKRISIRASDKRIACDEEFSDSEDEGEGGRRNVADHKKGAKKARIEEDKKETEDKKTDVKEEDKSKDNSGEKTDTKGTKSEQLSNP
The experiment in a line: HDAC2 biochemical assay, AMC-labeled peptide substrate. As to conditions: read-out: HDAC Isoform IC50 (nM) 2. As for the experimental part: (§4) Activity against all zinc-dependent HDACs 1 to 11 was assessed by using an acetylated AMC-labeled peptide substrate. The substrate RHKK(Ac)AMC was used for HDAC1, HDAC2, HDAC3, HDAC6 and HDAC10; the substrate used for HDAC8 was RHK(Ac)K(Ac)AMC. Activity against the class IIa HDACs (HDAC4, 5, 7, 9) and HDAC11 was determined using a class IIa-specific substrate, BOC-Lys(trifluoroacetyl)-AMC (“Trifluoroacetyl Lysine”; see Lahm et al, 2007, PNAS, 104, 17335-17340). All assays were based on the AMC-labeled substrate and developer combination.
(§5) The protocol involved a two-step reaction: first, the substrate with the acetylated lysine side chain is incubated with a sample containing HDAC activity, to produce the deacetylated products, which are then digested in the second step by the addition of developer to produce the fluorescent signal proportional to the amount of deacetylated substrates.
Human HDAC2 (GenBank Accession No. NM_001527), full length with C-terminal GST-tag, MW=82.9 kDa, expressed inbaculovirus expression system.
(§6) Assay Buffer: 50 mM Tris-HCl, pH8.0, 137 mM NaCl, 2.7 mM KCl, 1 mM MgC2. Before use, 1 mg/mL BSA and DMSO are added.
HDAC2: 0.07 ng/ul HDAC2 and 50 μM HDAC substrate are in the reaction buffer with 1% DMSO final. Incubate for 1 hour at 30° C.
(§7) Stage 1: Deacetylation of substrate by incubation of HDAC enzymes with compounds
(§8) Stage 2: Development by addition of Developer to digest the deacetylated substrate, and generate the fluorescent colour; Detection: 360/460 Ex/Em

The target of another test is T2, Human HDAC10 (Homo sapiens, UniProt Q969S8).
T2 construct: Human HDAC10 (a.a. 1-481); GST (N); His (C); host or cells: baculovirus expression system
T2 sequence (Q969S8 1-481): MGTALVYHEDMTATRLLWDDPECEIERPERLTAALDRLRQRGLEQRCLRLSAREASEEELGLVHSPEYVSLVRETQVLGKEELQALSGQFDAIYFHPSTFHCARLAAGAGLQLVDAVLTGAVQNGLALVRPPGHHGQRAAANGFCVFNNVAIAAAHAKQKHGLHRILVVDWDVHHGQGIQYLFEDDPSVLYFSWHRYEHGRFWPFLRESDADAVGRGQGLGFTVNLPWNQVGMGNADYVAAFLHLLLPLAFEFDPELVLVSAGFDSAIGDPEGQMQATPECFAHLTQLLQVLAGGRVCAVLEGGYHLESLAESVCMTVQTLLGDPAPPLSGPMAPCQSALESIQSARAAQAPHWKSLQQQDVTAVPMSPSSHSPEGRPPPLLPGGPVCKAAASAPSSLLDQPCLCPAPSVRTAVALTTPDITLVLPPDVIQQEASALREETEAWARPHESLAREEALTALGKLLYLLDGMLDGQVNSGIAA
The experiment in a line: HDAC10 biochemical assay, AMC-labeled peptide substrate. Particulars: read-out: HDAC Isoform IC50 (nM) 10. The protocol: as §4, §5
Human HDAC10 (a.a. 1-481), GenBank Accession No. NM_032019 with N-terminal GST tag and C-terminal His tag, MW=78 kDa, expressed in baculovirus expression system.
as §6
HDAC10: 12 ng/ul HDAC10 and 50 μM HDAC substrate are in the reaction buffer with 1% DMSO final. Incubate for 2 hours at 30° C.
as §7, §8

As for `FC(F)(F)c1nc(-c2ccc(CN(c3cnccn3)c3cnccn3)s2)no1` [Example BA, N-(Pyrazin-2-yl)-N-({5-[5-(trifluoromethyl)-1,2,4-oxadiazol-3-yl]thiophen-2-yl}methyl)pyrazin-2-amine], the EC50 in test [1] is no more than 1 µM; in test [2], no less than 10 µM. For the same molecule, the 50% inhibitory concentration (IC50) on Human HDAC2 and on Human HDAC10 was greater than 10000 nM each time.

Take `Cc1cnc(N(Cc2ccc(-c3noc(C(F)(F)F)n3)s2)c2cnccn2)cn1` [Example BH, 5-Methyl-N-(pyrazin-2-yl)-N-({5-[5-(trifluoromethyl)-1,2,4-oxadiazol-3-yl]thiophen-2-yl}methyl)pyrazin-2-amine]: the concentration giving a half-maximal response (EC50) in test [1] was 1 to 10 µM; in test [2], no less than 10 µM. Further, the IC50 on Human HDAC2 and at Human HDAC10 was greater than 10000 nM each time.

For the molecule `NC(=O)c1ccc(N(Cc2ccc(-c3noc(C(F)(F)F)n3)s2)c2cnccn2)nn1` [Example DQ, 6-[(Pyrazin-2-yl)({5-[5-(trifluoromethyl)-1,2,4-oxadiazol-3-yl]thiophen-2-yl}methyl)amino]pyridazine-3-carboxamide], the values for the EC50 in test [1] and in test [2] were no more than 1 µM and no less than 10 µM, respectively. In addition, the IC50 at Human HDAC2 and on Human HDAC10 was greater than 10000 nM in each case.

With `COC1CN(C(=O)c2ccc(N(Cc3ccc(-c4noc(C(F)(F)F)n4)s3)c3cnccn3)nn2)C1` [Example DR, 6-(3-Methoxyazetidine-1-carbonyl)-N-(pyrazin-2-yl)-N-({5-[5-(trifluoromethyl)-1,2,4-oxadiazol-3-yl]thiophen-2-yl}methyl)pyridazin-3-amine], the figures for the concentration for a half-maximal effect (EC50) in test [1] and in test [2] were no more than 1 µM and no less than 10 µM, respectively. Moreover, the IC50 at Human HDAC2 and at Human HDAC10 was greater than 10000 nM throughout.

Regarding `COc1cncc(N(Cc2ccc(-c3noc(C(F)(F)F)n3)s2)c2cc(C(F)(F)F)cnn2)n1` [Example EN, N-(6-Methoxypyrazin-2-yl)-5-(trifluoromethyl)-N-({5-[5-(trifluoromethyl)-1,2,4-oxadiazol-3-yl]thiophen-2-yl}methyl)pyridazin-3-amine], the figures for the EC50 in test [1] and in test [2] were no more than 1 µM and no less than 10 µM, respectively.

Turning to `FC(F)(F)c1cnnc(N(Cc2ccc(-c3noc(C(F)(F)F)n3)s2)c2cccnn2)c1` [Example ER, N-(Pyridazin-3-yl)-5-(trifluoromethyl)-N-({5-[5-(trifluoromethyl)-1,2,4-oxadiazol-3-yl]thiophen-2-yl}methyl)pyridazin-3-amine], the EC50 in test [1] and in test [2] was no less than 10 µM each time.

With `FC(F)(F)c1cnnc(N(Cc2ccc(-c3noc(C(F)(F)F)n3)s2)c2cc(C(F)(F)F)cnn2)c1` [Example EU, 5-(Trifluoromethyl)-N-({5-[5-(trifluoromethyl)-1,2,4-oxadiazol-3-yl]thiophen-2-yl}methyl)-N-[5-(trifluoromethyl)pyridazin-3-yl]pyridazin-3-amine], the EC50 in test [1] is no more than 1 µM; in test [2] it was no less than 10 µM.

Consider `CC(C)(O)c1cnnc(N(Cc2ccc(-c3noc(C(F)(F)F)n3)s2)c2cnccn2)c1` [Example GS, 2-{6-[(Pyrazin-2-yl)({5-[5-(trifluoromethyl)-1,2,4-oxadiazol-3-yl]thiophen-2-yl}methyl)amino]pyridazin-4-yl}propan-2-ol], for which the IC50 on Human HDAC2 and at Human HDAC10 was greater than 10000 nM in each case.

Consider `CC1(c2cnnc(N(Cc3ccc(-c4noc(C(F)(F)F)n4)s3)c3cnccn3)c2)COC1` [Example GT, 5-(3-Methyloxetan-3-yl)-N-(pyrazin-2-yl)-N-({5-[5-(trifluoromethyl)-1,2,4-oxadiazol-3-yl]thiophen-2-yl}methyl)pyridazin-3-amine], for which the IC50 at Human HDAC2 and at Human HDAC10 was greater than 10000 nM throughout.

Take `CC(F)(F)c1cnnc(N(Cc2ccc(-c3noc(C(F)(F)F)n3)s2)c2cnccn2)c1` [Example GU, 5-(1,1-Difluoroethyl)-N-(pyrazin-2-yl)-N-({5-[5-(trifluoromethyl)-1,2,4-oxadiazol-3-yl]thiophen-2-yl}methyl)pyridazin-3-amine]: the IC50 at Human HDAC2 and at Human HDAC10 was greater than 10000 nM throughout.

In the case of `FC(F)c1cnnc(N(Cc2ccc(-c3noc(C(F)(F)F)n3)s2)c2cnccn2)c1` [Example GV, 5-(Difluoromethyl)-N-(pyrazin-2-yl)-N-({5-[5-(trifluoromethyl)-1,2,4-oxadiazol-3-yl]thiophen-2-yl}methyl)pyridazin-3-amine], the IC50 on Human HDAC2 and at Human HDAC10 was greater than 10000 nM throughout.

For `OC1(c2cnnc(N(Cc3ccc(-c4noc(C(F)(F)F)n4)s3)c3cnccn3)c2)COC1` [Example GW, 3-{6-[(Pyrazin-2-yl)({5-[5-(trifluoromethyl)-1,2,4-oxadiazol-3-yl]thiophen-2-yl}methyl)amino]pyridazin-4-yl}oxetan-3-ol], the 50% inhibitory concentration (IC50) at Human HDAC2 and at Human HDAC10 was greater than 10000 nM throughout.

For `C[C@H]1CCCN1C(=O)c1cnnc(N(Cc2ccc(-c3noc(C(F)(F)F)n3)s2)c2cnccn2)c1` [Example GY, 5-[(2S)-2-Methylpyrrolidine-1-carbonyl]-N-(pyrazin-2-yl)-N-({5-[5-(trifluoromethyl)-1,2,4-oxadiazol-3-yl]thiophen-2-yl}methyl)pyridazin-3-amine], the IC50 at Human HDAC2 and on Human HDAC10 was greater than 10000 nM each time.

Take `FC(F)(F)c1nc(-c2ccc(CN(c3ccccn3)c3ccccn3)s2)no1` [Example U, N-(Pyridin-2-yl)-N-({5-[5-(trifluoromethyl)-1,2,4-oxadiazol-3-yl]thiophen-2-yl}methyl)pyridin-2-amine]: the IC50 at Human HDAC2 and on Human HDAC10 was greater than 10000 nM each time.
